According to US10947213B1 (Merck Patent GmbH, priority 2015, dated 2021):
Where a name gives a salt, the structure may show the parent alone.

These molecules were tested against T1, TLR7/NFKb HEK cells (Homo sapiens, UniProt Q9NYK1) (assay: HEK Cell Assay (TLR7/NFKb reporter, Steady-Glo luciferase readout)). Conditions: 30 min compound preincubation, then R*48 agonist for 5 hours, read-out: Potency.
T1 construct: expressed in transfected cells; host or cells: HEK cells (TLR7/NFKb reporter line)
T1 sequence (Q9NYK1 27-1049): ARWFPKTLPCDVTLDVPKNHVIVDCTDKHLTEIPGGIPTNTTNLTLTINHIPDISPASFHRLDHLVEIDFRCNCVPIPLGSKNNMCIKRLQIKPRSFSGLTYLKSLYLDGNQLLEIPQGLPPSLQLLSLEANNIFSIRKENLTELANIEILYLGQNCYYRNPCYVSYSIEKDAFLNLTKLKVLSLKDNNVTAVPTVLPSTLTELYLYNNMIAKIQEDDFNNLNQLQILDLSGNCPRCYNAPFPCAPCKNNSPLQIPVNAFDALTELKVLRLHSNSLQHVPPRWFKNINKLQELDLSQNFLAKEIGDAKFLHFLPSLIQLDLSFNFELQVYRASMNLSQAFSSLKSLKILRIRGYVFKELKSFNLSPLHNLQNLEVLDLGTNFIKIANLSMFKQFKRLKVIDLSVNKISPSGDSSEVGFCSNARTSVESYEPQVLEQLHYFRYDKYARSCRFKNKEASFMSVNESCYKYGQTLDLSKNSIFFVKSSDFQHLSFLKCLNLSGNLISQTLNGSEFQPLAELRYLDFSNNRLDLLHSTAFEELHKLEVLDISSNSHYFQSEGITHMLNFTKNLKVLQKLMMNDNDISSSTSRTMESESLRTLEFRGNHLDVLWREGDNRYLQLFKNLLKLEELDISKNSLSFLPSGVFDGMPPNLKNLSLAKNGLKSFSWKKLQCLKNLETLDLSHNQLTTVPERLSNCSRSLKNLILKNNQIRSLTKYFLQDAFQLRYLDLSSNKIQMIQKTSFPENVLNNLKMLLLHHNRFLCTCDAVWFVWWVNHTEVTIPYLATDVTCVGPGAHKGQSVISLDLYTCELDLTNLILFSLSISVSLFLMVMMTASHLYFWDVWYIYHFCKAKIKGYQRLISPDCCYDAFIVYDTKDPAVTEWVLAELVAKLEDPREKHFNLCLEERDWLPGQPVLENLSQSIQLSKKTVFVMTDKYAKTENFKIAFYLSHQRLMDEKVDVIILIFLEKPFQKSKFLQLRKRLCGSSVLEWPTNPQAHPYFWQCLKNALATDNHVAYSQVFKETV
Type: cell-based
In short: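 Steady-Glo luminescence after 5 h stimulation with R*48 agonist, following 30 min compound preincubation. Assay run in HEK cells carrying a TLR7/NFKb luciferase reporter, plated at 5000 cells/well and grown 24 h at 37° C (10% CO2) before treatment.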
In the case of `C[C@H]1C[C@@H](NC(=O)CC2CC2(F)F)CN(c2ccc(C(F)(F)F)c3ncccc23)C1` (stereo partly drawn) [Compound 286, 2-(2,2-difluorocyclopropyl)-N-[(3R,5S)-5-methyl-1-[8-(trifluoromethyl)quinolin-5-yl]piperidin-3-yl]acetamide], the IC50 is reported as less than 1 µM.
For `CC(O)C(=O)N[C@@H]1C[C@H](C)CN(c2ccc(C(F)F)c3ncccc23)C1` (stereo partly drawn) [Compound 302, N-[(3R,5S)-1-[8-(difluoromethyl)quinolin-5-yl]-5-methylpiperidin-3-yl]-2-hydroxypropanamide], the IC50 was 1 to 10 µM.
With `CN[C@@H]1C[C@H](C)CN(c2ccc(C#N)c3nccnc23)C1` [Compound 16, 8-((3S,5R)-3-methyl-5-(methylamino)piperidin-1-yl)quinoxaline-5-carbonitrile hydrochloride] the IC50 was less than 1 µM.
`CCN(CC)CCNC(=O)N1CCN(c2ccc(C#N)c3nccnc23)CC1` [Compound 453, 4-(8-Cyano-quinoxalin-5-yl)-piperazine-1-carboxylic acid (2-diethylamino-ethyl)-amide] showed an IC50 of less than 1 µM.
Work on `CCN(CC)CCNCC1CCN(c2ccnc3ccc(OC)cc23)CC1` [Compound 382, N,N-Diethyl-N′-[1-(6-methoxy-quinolin-4-yl)-piperidin-4-ylmethyl]-ethane-1,2-diamine] yielded an IC50 of 1 to 10 µM.
`C[C@H]1C[C@@H](NC(=O)CC(C)(C)N)CN(c2ccc(C(F)(F)F)c3ncccc23)C1` [Compound 514, 3-Amino-3-methyl-N-[(3R,5S)-5-methyl-1-(8-trifluoromethyl-quinolin-5-yl)-piperidin-3-yl]-butyramide] gave an IC50 of less than 1 µM.
`CCN(CC)CCNC(=O)C1CCN(c2ccnc3ncccc23)CC1` [Compound 1, N-(2-(diethylamino)ethyl)-1-(1,8-naphthyridin-4-yl)piperidine-4-carboxamide] gave an IC50 greater than 10 µM.
With `C[C@H]1C[C@@H](NC(=O)Cc2cn(C)cn2)CN(c2ccnc3nccnc23)C1` [Compound 133, N-[(3R,5S)-5-methyl-1-[pyrido[2,3-b]pyrazin-8-yl]piperidin-3-yl]-2-(1-methyl-1H-imidazol-4-yl)acetamide] the IC50 was greater than 10 µM.
Work on `N[C@H]1C[C@@H](C2CC2)CN(c2ccc(C(F)(F)F)c3nccnc23)C1` (relative stereo) [Compound 330, cis-5-cyclopropyl-1-[8-(trifluoromethyl)quinoxalin-5-yl]piperidin-3-amine] yielded an IC50 of less than 1 µM.
`C[C@H]1C[C@@H](NC(=O)CN2CC(O)C2)CN(c2ccc(C(F)(F)F)c3ncccc23)C1` [Compound 284] showed an IC50 of less than 1 µM.
`C[C@H]1C[C@@H](N)CN(c2c(F)cc(C#N)c3nccnc23)C1` [Compound 342, 8-[(3R,5S)-3-amino-5-methylpiperidin-1-yl]-7-fluoroquinoxaline-5-carbonitrile] showed an IC50 of 1 to 10 µM.
In the case of `C[C@H]1C[C@@H](NC(=O)C(N)C(F)(F)F)CN(c2ccc(C(N)=O)c3ncccc23)C1` (single isomer, unassigned) [Compound 185], the IC50 is reported as greater than 10 µM.
`Cc1ncc(N2C[C@@H](C)C[C@@H](NC(=O)CCC(=O)N3CCC3)C2)c2cccnc12` [Compound 566, 4-Azetidin-1-yl-N-[(3R,5S)-5-methyl-1-(8-methyl-[1,7]naphthyridin-5-yl)-piperidin-3-yl]-4-oxo-butyramide] showed an IC50 of 1 to 10 µM.
In the case of `C[C@H]1C[C@@H](NCC#N)CN(c2ccnc3nccnc23)C1` [Compound 39, 2-((3R,5S)-5-methyl-1-(pyrido[2,3-b]pyrazin-8-yl)piperidin-3-ylamino)acetonitrile hydrochloride], the IC50 is reported as 1 to 10 µM.
With `CC(=O)N[C@@H]1C[C@H](C)CN(c2ccc(C(F)(F)F)c3ncccc23)C1` [Compound 517, N-[(3R,5S)-5-Methyl-1-(8-trifluoromethyl-quinolin-5-yl)-piperidin-3-yl]-acetamide] the IC50 was less than 1 µM.
Work on `O=C(CN1CCCCC1)NCC1CCN(c2ccnc3ccccc23)CC1` [Compound 8, 2-(Piperidin-1-yl)-N-((1-(quinolin-4-yl)piperidin-4-yl)methyl)acetamide] yielded an IC50 of 1 to 10 µM.
With `CCN(CC)CC(=O)NCC1CCN(c2ccc(C(F)(F)F)c3ncccc23)CC1` [Compound 443, 2-Diethylamino-N-[1-(8-trifluoromethyl-quinolin-5-yl)-piperidin-4-ylmethyl]-acetamide] the IC50 was less than 1 µM.
Molecule `CNC(=O)[C@@H]1C[C@H](C)CN(c2ccc(C#N)c3nccnc23)C1` (relative stereo) [Compound 541, cis-1-(8-Cyano-quinoxalin-5-yl)-5-methyl-piperidine-3-carboxylic acid methylamide] has an IC50 of 1 to 10 µM.
With `CC(C(=O)N[C@@H]1C[C@H](C)CN(c2ccc(C(F)(F)F)c3nccnc23)C1)N1CC(N)C1` (single isomer, unassigned) [Compound 369] the IC50 was less than 1 µM.
Work on `Cc1ncc(N2C[C@@H](C)C[C@@H](NC(=O)[C@H](N)C3CC3)C2)c2cccnc12` [Compound 561, (R)-2-Amino-2-cyclopropyl-N-[(3R,5S)-5-methyl-1-(8-methyl-[1,7]naphthyridin-5-yl)-piperidin-3-yl]-acetamide] yielded an IC50 of less than 1 µM.
With `Fc1ccc2nccc(N3CCC(CNCCN4CCCCC4)CC3)c2c1` [Compound 378, [1-(6-Fluoro-quinolin-4-yl)-piperidin-4-ylmethyl]-(2-piperidin-1-yl-ethyl)-amine] the IC50 was 1 to 10 µM.
`C[C@H]1C[C@@H](N(C)C(=O)CC(C)(C)N)CN(c2ccc(C(F)(F)F)c3ncccc23)C1` [Compound 465, 3-Amino-3,N-dimethyl-N-[(3R,5S)-5-methyl-1-(8-trifluoromethyl-quinolin-5-yl)-piperidin-3-yl]-butyramide] gave an IC50 of less than 1 µM.
Molecule `C[C@H]1C[C@@H](NC(=O)CC2(C)CCN(C)CC2)CN(c2ccc(C#N)c3nccnc23)C1` [Compound 233, N-[(3R,5S)-1-(8-cyanoquinoxalin-5-yl)-5-methylpiperidin-3-yl]-2-(1,4-dimethylpiperidin-4-yl)acetamide] has an IC50 of less than 1 µM.
With `N#Cc1ccc(N2C[C@@H](NC(=O)CC(F)(F)F)C[C@@H](C(F)(F)F)C2)c2cccnc12` (relative stereo) [Compound 428, cis-N-[1-(8-Cyano-quinolin-5-yl)-5-trifluoromethyl-piperidin-3-yl]-3,3,3-trifluoro-propionamide] the IC50 was less than 1 µM.
With `C[C@H]1C[C@@H](NC(=O)CN2CCCN(C)CC2)CN(c2ccc(C(F)(F)F)c3ncccc23)C1` [Compound 290, 2-(4-methyl-1,4-diazepan-1-yl)-N-[(3R,5S)-5-methyl-1-[8-(trifluoromethyl)quinolin-5-yl]piperidin-3-yl]acetamide] the IC50 was less than 1 µM.
Molecule `C[C@H]1C[C@@H](NC(=O)CN2CCC(F)(F)CC2)CN(c2ccc(C#N)c3nccnc23)C1` [Compound 348, N-[(3R,5S)-1-(8-cyanoquinoxalin-5-yl)-5-methylpiperidin-3-yl]-2-(4,4-difluoropiperidin-1-yl)acetamide] has an IC50 of less than 1 µM.
`C[C@H]1C[C@@H](NC(=O)C(C2CC2)N(C)C)CN(c2ccc(C(F)(F)F)c3ncccc23)C1` (stereo partly drawn) [Compound 519, 2-Cyclopropyl-2-dimethylamino-N-[(3R,5S)-5-methyl-1-(8-trifluoromethyl-quinolin-5-yl)-piperidin-3-yl]-acetamide] showed an IC50 of less than 1 µM.
For `N#Cc1ccc(N2C[C@@H](NC(=O)CN3CCOCC3)C[C@@H](C(F)(F)F)C2)c2nccnc12` (relative stereo) [Compound 228, cis-N-[1-(8-cyanoquinoxalin-5-yl)-5-(trifluoromethyl)piperidin-3-yl]-2-(morpholin-4-yl)acetamide], the IC50 was 1 to 10 µM.
